In brackets after ≈: the same amount, converted by molar mass. Like-named read-outs stand apart in the source and are kept apart here. Square brackets hold non-standard residues; d marks the D form. Peptide text beside a SMILES is read from it.
Columns and labels:
human erythrocytes = assay: Hemolytic activity (MHC), Protocol A, 12 hours; conditions: for minimal hemolytic concentration (MHC): incubation for 12 hours at 37° C. (Tables 7 and 8)
Method: Measurement of Hemolytic Activity—Protocol A: Peptide samples were added to 1% human erythrocytes in phosphate buffered saline (0.08M NaCl; 0.043M Na2PO4; 0.011M KH2PO4) and reactions were incubated at 37° C. for 12 hours in microtiter plates. Peptide samples were diluted 2 fold in order to determine the concentration that produced no hemolysis. […] Hemoglobin release was determined spectrophotometrically at 562 nm. The hemolytic titer was the highest 2-fold dilution of the peptide that still caused release of hemoglobin from erythrocytes. The control for no release of hemoglobin was a sample of 1% erythrocytes without any peptide added. […] Peptide samples were diluted 2 fold in order to determine the concentration that produced no hemolysis. […] Hemoglobin release was determined spectrophotometrically at 570 nm. The hemolytic titer was the highest 2-fold dilution of the peptide that still caused release of hemoglobin from erythrocytes. The control for no release of hemoglobin was a sample of 1% erythrocytes without any peptide added.

[1] = RP-HPLC temperature profiling (hydrophobicity and self-association/dimerization parameter PA); type: physicochemical; conditions: for tR (min) 5° C.: RP-HPLC retention time at 5° C. during temperature profiling (measure of hydrophobicity); for tR (min) 80° C.: RP-HPLC retention time at 80° C. during temperature profiling; for tR (min) Max: maximal RP-HPLC retention time during temperature profiling 5-80° C.; for PA (min) association parameter: maximal retention time difference relative to control peptide C within 5-80° C.; for ΔtR (X-PSL) (min) 5° C.: retention time difference relative to native peptide V681 (PSL) at 5° C.; for ΔtR (X-PSL) (min) 80° C.: retention time difference relative to native peptide V681 (PSL) at 80° C.
Method in brief: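 RP-HPLC retention times recorded over temperature profiling from 5°C to 80°C, with retention relative to native V681 at each limit used as hydrophobicity. Self-association parameter PA defined as the maximal change in retention time from 5°C, after subtracting that of monomeric random-coil control peptide C.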

gram-positive bacteria = tested on: gram-positive bacteria
Method: (§1) Measurement of Antimicrobial Activity—Minimal inhibitory concentrations (MICs) were determined using a standard microtiter dilution method in LB (Luria-Bertani) no-salt medium (10 g of tryptone and 5 g of yeast extract per liter). Briefly, cells were grown overnight at 37° C. in LB and diluted in the same medium. […] Plates were incubated at 37° C. for 24 hours and MICs determined as the lowest peptide concentration that inhibited growth. Alternatively, minimal inhibitory concentrations were determined using a standard microtiter dilution method in a Mueller-Hinton (MH) medium. Briefly, cells were grown overnight at 37° C. in MH broth and diluted in the same medium. […] Plates were incubated at 37° C. for 24 hours and MICs determined as the lowest peptide concentration that inhibited growth. However, for MIC determination of Pseudomonas aeruginosa clinical isolates, brain heart infusion (BH1) medium was used instead of MH broth. In addition, the bacteria were diluted to a final inoculum of 1×10^6 colony-forming units/ml.

gram-negative bacteria = assay: MIC, microtiter dilution, Gram-negative bacteria (geometric mean of 6 strains); type: cell-based; conditions: for MIC (μg/ml) Gram-negative: geometric mean MIC, Table 9
Method: The geometric mean MIC values from 6 microbial strains in this table were calculated to provide an overall evaluation of antimicrobial activity against gram-negative bacteria.
In Table 11, geometric mean MIC was calculated to provide an overall view of antimicrobial activity of the peptides against Gram-negative bacteria and was also used to calculate the therapeutic index.
as §1

[2] = polar face substitutions, relative hydrophobicity
[3] = minimal hemolytic concentration on human red blood cells (hRBC), Table 9

Row | SMILES | MHC (human erythrocytes) [µg/mL] | tR (min) 5° C. [1] [min] | tR (min) 80° C. [1] [min] | tR (min) Max [1] [min] | PA (min) association parameter [1] [min] | ΔtR (X-PSL) (min) 5° C. [1, 2] [min] | ΔtR (X-PSL) (min) 80° C. [1, 2] [min] | MIC (μg/ml) Gram-positive (gram-positive bacteria) [µg/mL] | MIC (μg/ml) Gram-negative (gram-negative bacteria) [µg/mL] | MHC (human erythrocytes; [3]) [µg/mL] | minimal hemolytic concentration (MHC) (human erythrocytes) [µg/mL] | further results
1 | CC[C@H](C)[C@H](NC(=O)[C@H](C)NC(=O)[C@H](CCCCN)NC(=O)[C@H](CC(C)C)NC(=O)[C@H](C)NC(=O)[C@@H](NC(=O)[C@H](Cc1c[nH]cn1)NC(=O)[C@H](CC(C)C)NC(=O)[C@@H](NC(=O)[C@@H](NC(=O)[C@H](CCCCN)NC(=O)[C@@H](NC(=O)[C@H](C)NC(=O)[C@@H](C)NC(=O)[C@H](CCCCN)NC(=O)[C@H](Cc1ccccc1)NC(=O)[C@@H](NC(=O)[C@H](CCCCN)NC(=O)[C@H](CC(C)C)NC(=O)[C@H](Cc1ccccc1)NC(=O)[C@H](CO)NC(=O)[C@H](CCCCN)NC(=O)[C@H](Cc1c[nH]c2ccccc12)NC(=O)[C@H](CCCCN)NC(C)=O)[C@@H](C)O)C(C)C)[C@@H](C)O)C(C)C)[C@@H](C)O)C(=O)N[C@@H](CO)C(=O)N[C@@H](CO)C(N)=O [PAD] (Ac-KWKSFLKTFK[dA]AVKTVLHTALKAISS-NH2) | 15.6 | 45.19 | 42.57 | 46.36 | 2.82 | -2.91 | -3.26 | 3.8 (≈ 1.29 µM) | 4.3 (≈ 1.46 µM) | – | – | –
2 | CC[C@H](C)[C@H](NC(=O)[C@H](C)NC(=O)[C@H](CCCCN)NC(=O)[C@H](CC(C)C)NC(=O)[C@H](C)NC(=O)[C@@H](NC(=O)[C@H](Cc1c[nH]cn1)NC(=O)[C@H](CC(C)C)NC(=O)[C@@H](NC(=O)[C@@H](NC(=O)[C@H](CCCCN)NC(=O)[C@@H](NC(=O)[C@H](C)NC(=O)[C@@H](CCCCN)NC(=O)[C@H](CCCCN)NC(=O)[C@H](Cc1ccccc1)NC(=O)[C@@H](NC(=O)[C@H](CCCCN)NC(=O)[C@H](CC(C)C)NC(=O)[C@H](Cc1ccccc1)NC(=O)[C@H](CO)NC(=O)[C@H](CCCCN)NC(=O)[C@H](Cc1c[nH]c2ccccc12)NC(=O)[C@H](CCCCN)NC(C)=O)[C@@H](C)O)C(C)C)[C@@H](C)O)C(C)C)[C@@H](C)O)C(=O)N[C@@H](CO)C(=O)N[C@@H](CO)C(N)=O [PKD] (Ac-KWKSFLKTFK[dK]AVKTVLHTALKAISS-NH2) | 31.2 | 42.20 | 39.29 | 42.87 | 2.23 | -5.90 | -6.54 | 2.8 (≈ 0.932 µM) | 2.6 (≈ 0.866 µM) | – | – | fold improvement on the average MIC compared to V681 (gram-negative bacteria; gram-negative bacteria, geometric mean comparison, Table 7): 3.4
3 | CC[C@H](C)[C@H](NC(=O)[C@H](C)NC(=O)[C@H](CCCCN)NC(=O)[C@H](CC(C)C)NC(=O)[C@H](C)NC(=O)[C@@H](NC(=O)[C@H](Cc1c[nH]cn1)NC(=O)[C@H](CC(C)C)NC(=O)[C@@H](NC(=O)[C@@H](NC(=O)[C@H](CCCCN)NC(=O)[C@@H](NC(=O)[C@H](C)NC(=O)[C@@H](CC(C)C)NC(=O)[C@H](CCCCN)NC(=O)[C@H](Cc1ccccc1)NC(=O)[C@@H](NC(=O)[C@H](CCCCN)NC(=O)[C@H](CC(C)C)NC(=O)[C@H](Cc1ccccc1)NC(=O)[C@H](CO)NC(=O)[C@H](CCCCN)NC(=O)[C@H](Cc1c[nH]c2ccccc12)NC(=O)[C@H](CCCCN)NC(C)=O)[C@@H](C)O)C(C)C)[C@@H](C)O)C(C)C)[C@@H](C)O)C(=O)N[C@@H](CO)C(=O)N[C@@H](CO)C(N)=O [PLD] (Ac-KWKSFLKTFK[dL]AVKTVLHTALKAISS-NH2) | 31.2 | 44.73 | 42.14 | 45.85 | 2.82 | -3.37 | -3.69 | 4.7 (≈ 1.57 µM) | 5.0 (≈ 1.67 µM) | – | – | –
4 | CC[C@H](C)[C@H](NC(=O)[C@H](C)NC(=O)[C@H](CCCCN)NC(=O)[C@H](CC(C)C)NC(=O)[C@H](C)NC(=O)[C@@H](NC(=O)[C@H](Cc1c[nH]cn1)NC(=O)[C@H](CC(C)C)NC(=O)[C@@H](NC(=O)[C@@H](NC(=O)[C@H](CCCCN)NC(=O)[C@@H](NC(=O)[C@H](C)NC(=O)[C@@H](CO)NC(=O)[C@H](CCCCN)NC(=O)[C@H](Cc1ccccc1)NC(=O)[C@@H](NC(=O)[C@H](CCCCN)NC(=O)[C@H](CC(C)C)NC(=O)[C@H](Cc1ccccc1)NC(=O)[C@H](CO)NC(=O)[C@H](CCCCN)NC(=O)[C@H](Cc1c[nH]c2ccccc12)NC(=O)[C@H](CCCCN)NC(C)=O)[C@@H](C)O)C(C)C)[C@@H](C)O)C(C)C)[C@@H](C)O)C(=O)N[C@@H](CO)C(=O)N[C@@H](CO)C(N)=O [PSD] | – | 45.47 | 42.59 | 46.60 | 2.73 | -2.63 | -3.24 | – | 2.9 (≈ 0.979 µM) | 15.6 | – | geometric mean MIC against gram-positive bacteria (gram-positive bacteria; Table 8): 2.3 µg/mL; MIC (μg/ml) Gram-positive (gram-positive bacteria; geometric mean MIC, Table 9): 2.3 µg/mL (≈ 0.777 µM); fold improvement in antimicrobial activity compared to V681 (gram-positive bacteria; gram-positive bacteria, geometric mean MIC, Table 8): 2.7
5 | CC[C@H](C)[C@H](NC(=O)[C@H](C)NC(=O)[C@H](CCCCN)NC(=O)[C@H](CC(C)C)NC(=O)[C@H](C)NC(=O)[C@@H](NC(=O)[C@H](Cc1c[nH]cn1)NC(=O)[C@H](CC(C)C)NC(=O)[C@@H](NC(=O)[C@@H](NC(=O)[C@H](CCCCN)NC(=O)[C@@H](NC(=O)[C@H](C)NC(=O)[C@H](NC(=O)[C@H](CCCCN)NC(=O)[C@H](Cc1ccccc1)NC(=O)[C@@H](NC(=O)[C@H](CCCCN)NC(=O)[C@H](CC(C)C)NC(=O)[C@H](Cc1ccccc1)NC(=O)[C@H](CO)NC(=O)[C@H](CCCCN)NC(=O)[C@H](Cc1c[nH]c2ccccc12)NC(=O)[C@H](CCCCN)NC(C)=O)[C@@H](C)O)C(C)C)C(C)C)[C@@H](C)O)C(C)C)[C@@H](C)O)C(=O)N[C@@H](CO)C(=O)N[C@@H](CO)C(N)=O [PVD] (Ac-KWKSFLKTFK[dV]AVKTVLHTALKAISS-NH2) | – | 42.96 | 40.51 | 43.83 | 2.54 | -5.14 | -5.32 | 6.6 (≈ 2.22 µM) | 6.1 (≈ 2.05 µM) | 125.0 | 125 | fold decrease in hemolytic activity compared to the L-diastereomer (human erythrocytes): 16
6 | CC[C@H](C)[C@H](NC(=O)[C@H](C)NC(=O)[C@H](CCCCN)NC(=O)[C@H](CC(C)C)NC(=O)[C@H](C)NC(=O)[C@@H](NC(=O)[C@H](Cc1c[nH]cn1)NC(=O)[C@H](CC(C)C)NC(=O)[C@@H](NC(=O)[C@@H](NC(=O)[C@H](CCCCN)NC(=O)[C@@H](NC(=O)[C@H](C)NC(=O)[C@H](CO)NC(=O)[C@H](CCCCN)NC(=O)[C@H](Cc1ccccc1)NC(=O)[C@@H](NC(=O)[C@H](CCCCN)NC(=O)[C@H](CC(C)C)NC(=O)[C@H](Cc1ccccc1)NC(=O)[C@H](CO)NC(=O)[C@H](CCCCN)NC(=O)[C@H](Cc1c[nH]c2ccccc12)NC(=O)[C@H](CCCCN)NC(C)=O)[C@@H](C)O)C(C)C)[C@@H](C)O)C(C)C)[C@@H](C)O)C(=O)N[C@@H](CO)C(=O)N[C@@H](CO)C(N)=O [Peptide V681, reference compound] | – | 48.10 | 45.83 | 49.99 | 3.63 | 0 | 0 | 6.3 (≈ 2.13 µM) | 8.8 (≈ 2.97 µM) | 15.6 | 15.6 | Hydrophobicity tR5 ([1]; RP-HPLC retention time at pH 2, 5° C.): 96.6 min; Hydrophobicity tR80 ([1]; RP-HPLC retention time at pH 2, 80° C.): 88.8 min; overall hydrophobicity change relative to PVL ([1]; RP-HPLC retention time difference at 80° C., polar face substitutions): -0.35 min; PA (dimerization / self-association parameter) ([1]; maximal retention time difference relative to control peptide C, 5-80° C.): 7.2; ΔtR (X-NVL) (min) 5° C. ([1]; non-polar face substitutions, retention time difference relative to native peptide V681 (NVL) at 5° C., relative hydrophobicity): 0 min; ΔtR (X-NVL) (min) 80° C. ([1]; non-polar face substitutions, retention time difference relative to native peptide V681 (NVL) at 80° C., relative hydrophobicity): 0 min; MIC (μg/ml) GM (gram-positive bacteria): 4.4 µg/mL (≈ 1.49 µM); geometric mean MIC against gram-positive bacteria (gram-positive bacteria): 6.3 µg/mL; MIC (μg/ml) GM (gram-negative bacteria; geometric mean of MIC values from all 6 Gram-negative strains of Table 11): 5.0 µg/mL (≈ 1.69 µM)

Source: patent US8252737B2, “Antimicrobial peptides and methods of use” (priority 2004, dated 2012)
